Assay results taken from patent US20050137130A1, “Medical treatment” (priority 2001, published 2005).

Columns and labels:
[1] = system: Notch signalling in CHO-N2 (N27#11) cells expressing full length human Notch2; assay: Antagonist assay of Notch signalling from Delta-coated Dynabeads (N27#11 luciferase reporter); type: cell-based; conditions: soluble protein, N27#11 reporter cells; for inhibition of Notch signalling from Delta beads compared to control: IgG4Fc as control
Method: Fc tagged Notch signalling modulators were immobilised on Streptavidin-Dynabeads (CELLection Biotin Binder Dynabeads [Cat. No. 115.21] at 4.0×10^8 beads/ml from Dynal (UK) Ltd; “beads”) in combination with biotinylated α-IgG-4 (clone JDC14 at 0.5 mg/ml from Pharmingen [Cat. No. 555879]) as follows:
A volume of Dynabeads beads corresponding to the total number required was removed from a stock of beads at 4.0×10^8 beads/ml. This was washed twice with 1 ml of PBS, and resuspended in a final volume of 100 μl of PBS containing a biotinylated anti-IgG4 antibody (clone JDC14 at 0.5 mg/ml from Pharmingen [Cat. No. 555879]) in a sterile Eppendorf tube and placed on shaker at room temperature for 30 minutes. The amount of biotinylated anti-IgG4 antibody needed to coat the beads was calculated relative to the fact that 1×10^7 streptavidin Dynabeads bind a maximum of 2 μg of antibody.
After coating the beads with antibody they were washed 3 times with 1 ml of PBS and finally resuspended in mDelta1-IgG4Fc protein diluted in PBS. Beads were coated in a solution of […] protein (usually 5 μg of mDelta1-IgG4Fc protein was added per 10^7 beads to be coated) and the ligand was allowed to bind to the beads in a 1 ml volume for 2 h at room temperature (or 4° C. overnight) on a rotary shaker to keep the beads in suspension. […]
To set up the bead antagonist assay, N27#11 cells (T80 flask) were removed using 0.02% EDTA solution (Sigma), spun down and resuspended in 10 ml DMEM plus 10%(HI) FCS plus glutamine plus P/S. Ten μl of cells were counted and the cell density was adjusted to 2.0×10^5 cells/ml with fresh DMEM plus 10%(HI) FCS plus glutamine plus P/S. The reporter cells were plated out at 100 μl per well of a 96-well plate (i.e. 2×10^4 cells per well) and were placed in an incubator to settle down for at least 30 minutes. […]
The following day 150 μl of supernatant was then removed from all the wells, 100 μl of SteadyGlo™ luciferase assay reagent (Promega) was added and the resulting mixture left at room temperature for 5 minutes. […] Luminescence was then read in a TopCount™ (Packard) counter. […]

[2] = system: activated human CD4+ T cells; assay: Cytokine production (ELISA) by human CD4+ T cells stimulated with anti-CD3/CD28 beads and Delta1 beads, with added soluble protein; type: cell-based; conditions: increasing amounts of soluble protein in culture medium, 3 days
Method: M450 Streptavidin Dynabead™ magnetic beads (Dynal, USA) were coated with an anti-human-IgG4 biotinylated monoclonal antibody (BD Bioscience, 555879) by rotating them in the presence of the antibody for 30 minutes at room temperature. Beads were washed three times with PBS (1 ml). They were further incubated with hDelta1-hIgG4 (see Example 1 above) for 2 hours at room temperature and then washed three times with PBS (1 ml).
Human peripheral blood mononuclear cells (PBMC) were purified from blood using Ficoll-Paque separation medium (Pharmacia). Briefly, 28 ml of blood were overlaid on 21 ml of Ficoll-Paque separation medium and centrifuged at 18-20° C. for 40 minutes at 400 g. PBMC were recovered from the interface and washed 3 times before use for CD4+ T cell purification.
The CD4+ T cells were incubated in triplicates in a 96-well-plate (flat bottom) at 10^5 CD4/well/200 μl in RPMI medium containing 10% FCS, glutamine, penicillin, streptomycin and β2-mercaptoethanol.
Cytokine production was induced by stimulating the cells with anti-CD3/CD28 T cell expander beads from Dynal at a 1:1 ratio (bead/cell) in the presence of beads coated with hDelta1-IgG4Fc fusion protein (Example 1 above) at a 5:1 ratio (beads/cell). In some wells, increasing amounts of soluble hdelta1-IgG4Fc fusion protein were also added.
The supernatants were removed after 3 days of incubation at 37° C./5% CO2/humidified atmosphere and cytokine production was evaluated by ELISA using Pharmingen kits OptEIA Set human IL10 (catalog No. 555157), OptEIA Set human IL-5 (catalog No. 555202) for IL-10 and IL-5 respectively according to the manufacturer's instructions.
Human peripheral blood mononuclear cells (PBMC) were purified from blood using Ficoll-Paque separation medium (Pharmacia). […]
The supernatants were removed after 3 days of incubation at 37° C./5% CO2/humidified atmosphere and cytokine production was evaluated by ELISA using Pharmingen kits OptEIA Set human IL10 (Catalog No. 555157), OptEIA Set human IL-5 (Catalog No. 555202) for IL-10 and IL-5 respectively according to the manufacturer's instructions. […]

Substance	inhibition of Notch signalling from Delta beads compared to control [1]	inhibition of Notch signalling from Delta beads, compared with hDelta1-IgG4Fc ([1]; Delta-coated Dynabeads)	effect of added soluble protein on the IL-10 enhancement by bead-immobilised Delta1 [2]
hJagged1EGF1&2-IgG4Fc: human jagged1 sequence up to the end of EGF2 (leader, amino terminal, DSL, EGF1+2) fused to the Fc domain of human IgG4 (SEQ ID NO: 10)	significant inhibition compared to control	substantially the same inhibition of Notch signalling	inhibited
hDelta1-IgG4Fc: fusion protein comprising the extracellular domain of human Delta1 fused to the Fc domain of human IgG4 (SEQ ID NO: 5)	significant inhibition compared to control		inhibited
